# Source: patent US9750255B2, “Agricultural or horticultural chemical, method of controlling plant diseases, and product for controlling plant diseases” (Kureha Corporation, priority 2013, dated 2017)
# How the values were obtained:
# Fusarium graminearum = assay: microbe, parasite or virus in culture; type: cell-based
# Microdochium nivale = assay: In vitro antimicrobial activity test, colony diameter on PDA plate, Microdochium nivale
# Penicilium italicum = assay: In vitro antimicrobial activity test, colony diameter on PDA plate, Penicilium italicum
# Phaeosphaeria nodorum = assay: In vitro antimicrobial activity test, colony diameter on PDA plate, Phaeosphaeria nodorum
# Septoria tritici = assay: In vitro antimicrobial activity test, colony diameter on PDA plate, Septoria tritici; conditions: for Fungal growth inhibition rate (%) Measured value: 25° C., 14 days
# [1] = Fusarium graminearum, 72 h, read-out: Fungal growth inhibition rate (%) Measured value
# [2] = Zymoseptoria tritici, 336 h, read-out: Fungal growth inhibition rate (%) Measured value
# [3] = Parastagonospora nodorum, 168 h, read-out: Fungal growth inhibition rate (%) Measured value
# [4] = Microdochium nivale, 72 h, read-out: Fungal growth inhibition rate (%) Measured value
# [5] = 72 h, read-out: Fungal growth inhibition rate (%) Measured value
compound,measurement,setting,value
"Fc1ccc([C@]2(Cn3cncn3)O[C@H]2c2ccccc2Cl)cc1 (racemic) [Epoxiconazole, epoxiconazole]",inhibition at 0.01 ppm,Fusarium graminearum; [1],22%
same,inhibition at 0.04 ppm,Fusarium graminearum; [1],27%
same,inhibition at 0.16 ppm,Fusarium graminearum; [1],39%
same,inhibition at 0.63 ppm,Fusarium graminearum; [1],57%
same,inhibition at 2.5 ppm,Fusarium graminearum; [1],88%
"COC(=O)C1(C)CCC(Cc2ccc(Cl)cc2)C1(O)Cn1cncn1 (stereo not drawn) [Compound (1), methyl 3-(4-chlorobenzyl)-2-hydroxy-1-methyl-2-(1H-1,2,4-triazole-1-ylmethyl)cyclopentane carbonate]",Fungal growth inhibition rate (%) Measured value,"Microdochium nivale; Test Example 4, compound (1) 0.313 ppm alone, 25° C., 3 days",26%
same,Fungal growth inhibition rate (%) Measured value,"Penicilium italicum; Test Example 5, compound (1) 1.25 ppm alone, 25° C., 3 days",83%
same,Fungal growth inhibition rate (%) Measured value,"Phaeosphaeria nodorum; Test Example 6, compound (1) 1.25 ppm alone, 25° C., seven days",89%
same,Fungal growth inhibition rate (%) Measured value,"Fusarium graminearum; Test Example 3, compound (1) 1.25 ppm alone, 25° C., 3 days",93%
same,Fungal growth inhibition rate (%) Measured value,"Septoria tritici; Test Example 1, compound (1) 0.005 ppm alone",35%
same,Fungal growth inhibition rate (%) Measured value,"Septoria tritici; Test Example 2, compound (1) 0.02 ppm alone",3%
same,Fungal growth inhibition rate (%) Measured value,"Septoria tritici; Test Example 7, compound (1) 1.25 ppm alone",70%
same,Fungal growth inhibition rate (%) Measured value,"Septoria tritici; Test Example 8, compound (1) 1.25 ppm alone",77%
"CC(Cc1ccc(C(C)(C)C)cc1)CN1CCCCC1 (stereo not drawn) [Fenpropidine, fenpropidine]",Fungal growth inhibition rate (%) Measured value,"Septoria tritici; Test Example 8, fenpropidine 0.04 ppm alone",0%
same,Fungal growth inhibition rate (%) Measured value,"Septoria tritici; Test Example 8, fenpropidine 0.16 ppm alone",0%
same,Fungal growth inhibition rate (%) Measured value,"Septoria tritici; Test Example 8, fenpropidine 0.63 ppm alone",40%
same,Fungal growth inhibition rate (%) Measured value,"Septoria tritici; Test Example 8, fenpropidine 2.50 ppm alone",38%
same,Fungal growth inhibition rate (%) Measured value,"Septoria tritici; Test Example 8, fenpropidine 10.00 ppm alone",40%
"CC(Cc1ccc(C(C)(C)C)cc1)CN1C[C@@H](C)O[C@@H](C)C1 (stereo partly drawn) [Fenpropimorph, fenpropimorph]",inhibition at 0.04 ppm,Septoria tritici; [2],16%
same,inhibition at 0.16 ppm,Septoria tritici; [2],21%
same,inhibition at 0.63 ppm,Septoria tritici; [2],23%
same,inhibition at 2.5 ppm,Septoria tritici; [2],42%
same,inhibition at 10 ppm,Septoria tritici; [2],45%
"CC(C)C1CCC(Cc2ccc(Cl)cc2)C1(O)Cn1cncn1 (stereo not drawn) [Ipconazole, ipconazole]",inhibition at 0.01 ppm,Phaeosphaeria nodorum; [3],20%
same,inhibition at 0.04 ppm,Phaeosphaeria nodorum; [3],31%
same,inhibition at 0.16 ppm,Phaeosphaeria nodorum; [3],62%
same,inhibition at 0.63 ppm,Phaeosphaeria nodorum; [3],76%
"CC1(C)CCC(Cc2ccc(Cl)cc2)C1(O)Cn1cncn1 (stereo not drawn) [Metconazole, metconazole]",inhibition at 0.01 ppm,Septoria tritici; [2],0%
same,inhibition at 0.039 ppm,Septoria tritici; [2],0%
same,inhibition at 0.156 ppm,Septoria tritici; [2],11%
same,inhibition at 0.625 ppm,Septoria tritici; [2],56%
same,inhibition at 2.5 ppm,Septoria tritici; [2],98%
"CCCC1COC(Cn2cncn2)(c2ccc(Cl)cc2Cl)O1 (stereo not drawn) [Propiconazole, propiconazole]",inhibition at 0.156 ppm,Microdochium nivale; [4],0%
same,inhibition at 0.625 ppm,Microdochium nivale; [4],45%
same,inhibition at 2.5 ppm,Microdochium nivale; [4],76%
"OC(Cc1ccccc1Cl)(Cn1nc[nH]c1=S)C1(Cl)CC1 (stereo not drawn) [Prothioconazole, prothioconazole]",inhibition at 0.01 ppm,Septoria tritici; [2],0%
same,inhibition at 0.039 ppm,Septoria tritici; [2],10%
same,inhibition at 0.156 ppm,Septoria tritici; [2],21%
same,inhibition at 0.625 ppm,Septoria tritici; [2],51%
same,inhibition at 2.5 ppm,Septoria tritici; [2],100%
"CC(C)(C)C(O)(CCc1ccc(Cl)cc1)Cn1cncn1 (stereo not drawn) [Tebuconazole, tebuconazole]",inhibition at 0.04 ppm,Penicilium italicum; [5],3%
same,inhibition at 0.16 ppm,Penicilium italicum; [5],30%
same,inhibition at 0.63 ppm,Penicilium italicum; [5],68%
same,inhibition at 2.5 ppm,Penicilium italicum; [5],87%
same,inhibition at 10 ppm,Penicilium italicum; [5],100%
